The values that follow are results of earlier work, collected in US20240269084A1, “DELAYED RELEASE COMPOSITIONS OF DIMETHYL FUMARATE” (Zim Laboratories Limited, priority 2021, published 2024).

Each structure is given as a SMILES string. Structures can show the parent of a compound that is named as a salt.

As for `COC(=O)/C=C/C(=O)OC` [Dimethyl fumarate, dimethyl (E) butenedioate], the Solubility in water entry is recorded as “highly soluble in water”.
